Results from the supplement of paper PMC10307832.

Key:
Assay in all cases: relative viability (nuclei count vs DMSO), 5 days (fraction); higher = more cells survive
COR-L23 = test system: COR-L23
Summary of the method: (§1)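 Nuclei were stained with Hoechst during a one-step fixation (final 0.05% Triton X-100, 1% formaldehyde, 1 ug/ml Hoechst) carried out 5 days after dosing, then counted on 4× images. The cells, lung cancer lines in 1536-well plates, had been dosed by pin tool the day after seeding with one drug alone or a fixed anchor-drug dose plus five library-drug doses (not always all listed) in √10 steps. Relative viability is the nuclei count in treated wells divided by that in vehicle wells, and each value is the median of duplicate plates.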

NCI-H2126 = test system: NCI-H2126
Summary of the method: as §1

SW 1573 = test system: SW 1573
Summary of the method: as §1

RERF-LC-KJ = test system: RERF-LC-KJ
Summary of the method: as §1

NCI-H522 = test system: NCI-H522
Summary of the method: as §1

NCI-H1355 = test system: NCI-H1355
Summary of the method: as §1

NCI-H838 = test system: NCI-H838
Summary of the method: as §1

NCI-H23 = test system: NCI-H23
Summary of the method: as §1

SW 900 = test system: SW 900
Summary of the method: as §1

H3255 = test system: H3255
Summary of the method: as §1

UMC-11 = test system: UMC-11
Summary of the method: as §1

NCI-H1915 = test system: NCI-H1915
Summary of the method: as §1

NCI-H1755 = test system: NCI-H1755
Summary of the method: as §1

HCC-827 = test system: HCC-827
Summary of the method: as §1

NCI-H3122 = test system: NCI-H3122
Summary of the method: as §1

EMC-BAC-2 = test system: EMC-BAC-2
Summary of the method: as §1

NCI-H520 = test system: NCI-H520
Summary of the method: as §1

EKVX = test system: EKVX
Summary of the method: as §1

NCI-H2405 = test system: NCI-H2405
Summary of the method: as §1

NCI-H661 = test system: NCI-H661
Summary of the method: as §1

HCC-15 = test system: HCC-15
Summary of the method: as §1

LC-2-ad = test system: LC-2-ad
Summary of the method: as §1

HARA = test system: HARA
Summary of the method: as §1

LCLC-97TM1 = test system: LCLC-97TM1
Summary of the method: as §1

**Q.** Which relative viability (COR-L23; first compound 0.253 µM) does the source give for `Nc1cccc2c1CN(C1CCC(=O)NC1=O)C2=O` (stereo unspecified) [Lenalidomide] + Cc1cc(Nc2cc(N3CCN(C)CC3)nc(Sc3ccc(NC(=O)C4CC4)cc3)n2)n[nH]1 [Tozasertib] (partner 0.1 µM) here?
**A.** 0.255

**Q.** What about the relative viability (COR-L23; first compound 0.8 µM) of the same molecule?
**A.** 0.238

**Q.** What about the relative viability (COR-L23; first compound 2.53 µM) of the same molecule?
**A.** 0.229

**Q.** And the relative viability (COR-L23; first compound 8 µM)?
**A.** 0.29

**Q.** What about the relative viability (NCI-H2126; first compound 0.253 µM) of the same molecule?
**A.** 0.873

**Q.** And the relative viability (NCI-H2126; first compound 0.8 µM)?
**A.** 0.817

**Q.** And the relative viability (NCI-H2126; first compound 2.53 µM)?
**A.** 0.82

**Q.** And the relative viability (NCI-H2126; first compound 8 µM)?
**A.** 0.737

**Q.** What about the relative viability (SW 1573; first compound 0.253 µM) of the same molecule?
**A.** 0.159

**Q.** And the relative viability (SW 1573; first compound 0.8 µM)?
**A.** 0.193

**Q.** What about the relative viability (SW 1573; first compound 2.53 µM) of the same molecule?
**A.** 0.276

**Q.** What about the relative viability (SW 1573; first compound 8 µM) of the same molecule?
**A.** 0.198

**Q.** And the relative viability (RERF-LC-KJ; first compound 0.253 µM)?
**A.** 0.507

**Q.** And the relative viability (RERF-LC-KJ; first compound 0.8 µM)?
**A.** 0.566

**Q.** And the relative viability (RERF-LC-KJ; first compound 2.53 µM)?
**A.** 0.515

**Q.** And the relative viability (RERF-LC-KJ; first compound 8 µM)?
**A.** 0.568

**Q.** What about the relative viability (NCI-H522; first compound 0.253 µM) of the same molecule?
**A.** 0.574

**Q.** What about the relative viability (NCI-H522; first compound 2.53 µM) of the same molecule?
**A.** 0.52

**Q.** What about the relative viability (NCI-H522; first compound 8 µM) of the same molecule?
**A.** 0.511

**Q.** What about the relative viability (NCI-H1355; first compound 0.253 µM) of the same molecule?
**A.** 0.578

**Q.** What about the relative viability (NCI-H1355; first compound 2.53 µM) of the same molecule?
**A.** 0.559

**Q.** And the relative viability (NCI-H1355; first compound 8 µM)?
**A.** 0.59

**Q.** What about the relative viability (NCI-H838; first compound 0.253 µM) of the same molecule?
**A.** 0.322

**Q.** What about the relative viability (NCI-H838; first compound 0.8 µM) of the same molecule?
**A.** 0.28

**Q.** And the relative viability (NCI-H838; first compound 2.53 µM)?
**A.** 0.317

**Q.** And the relative viability (NCI-H838; first compound 8 µM)?
**A.** 0.298

**Q.** And the relative viability (NCI-H23; first compound 0.253 µM)?
**A.** 0.438

**Q.** And the relative viability (NCI-H23; first compound 0.8 µM)?
**A.** 0.343

**Q.** And the relative viability (NCI-H23; first compound 2.53 µM)?
**A.** 0.723

**Q.** And the relative viability (NCI-H23; first compound 8 µM)?
**A.** 0.405

**Q.** What about the relative viability (SW 900; first compound 0.253 µM) of the same molecule?
**A.** 0.544

**Q.** What about the relative viability (SW 900; first compound 2.53 µM) of the same molecule?
**A.** 0.635

**Q.** What about the relative viability (SW 900; first compound 8 µM) of the same molecule?
**A.** 0.616

**Q.** And the relative viability (H3255; first compound 0.253 µM)?
**A.** 0.602

**Q.** What about the relative viability (H3255; first compound 0.8 µM) of the same molecule?
**A.** 0.79

**Q.** What about the relative viability (H3255; first compound 2.53 µM) of the same molecule?
**A.** 0.662

**Q.** What about the relative viability (H3255; first compound 8 µM) of the same molecule?
**A.** 0.536

**Q.** What about the relative viability (UMC-11; first compound 0.253 µM) of the same molecule?
**A.** 0.192

**Q.** What about the relative viability (UMC-11; first compound 0.8 µM) of the same molecule?
**A.** 0.21

**Q.** What about the relative viability (UMC-11; first compound 2.53 µM) of the same molecule?
**A.** 0.192

**Q.** What about the relative viability (UMC-11; first compound 8 µM) of the same molecule?
**A.** 0.195

**Q.** What about the relative viability (NCI-H1915; first compound 0.253 µM) of the same molecule?
**A.** 0.45

**Q.** What about the relative viability (NCI-H1915; first compound 0.8 µM) of the same molecule?
**A.** 0.471

**Q.** And the relative viability (NCI-H1915; first compound 2.53 µM)?
**A.** 0.437

**Q.** What about the relative viability (NCI-H1915; first compound 8 µM) of the same molecule?
**A.** 0.527

**Q.** And the relative viability (NCI-H1755; first compound 0.253 µM)?
**A.** 0.638

**Q.** And the relative viability (NCI-H1755; first compound 0.8 µM)?
**A.** 0.614

**Q.** What about the relative viability (NCI-H1755; first compound 2.53 µM) of the same molecule?
**A.** 0.597

**Q.** And the relative viability (NCI-H1755; first compound 8 µM)?
**A.** 0.541

**Q.** And the relative viability (HCC-827; first compound 0.253 µM)?
**A.** 0.47

**Q.** What about the relative viability (HCC-827; first compound 0.8 µM) of the same molecule?
**A.** 0.41

**Q.** And the relative viability (HCC-827; first compound 2.53 µM)?
**A.** 0.455

**Q.** What about the relative viability (HCC-827; first compound 8 µM) of the same molecule?
**A.** 0.462

**Q.** And the relative viability (NCI-H3122; first compound 0.253 µM)?
**A.** 0.39

**Q.** What about the relative viability (NCI-H3122; first compound 0.8 µM) of the same molecule?
**A.** 0.416

**Q.** And the relative viability (NCI-H3122; first compound 2.53 µM)?
**A.** 0.406

**Q.** What about the relative viability (NCI-H3122; first compound 8 µM) of the same molecule?
**A.** 0.522

**Q.** And the relative viability (EMC-BAC-2; first compound 0.253 µM)?
**A.** 0.287

**Q.** And the relative viability (EMC-BAC-2; first compound 0.8 µM)?
**A.** 0.272

**Q.** What about the relative viability (EMC-BAC-2; first compound 2.53 µM) of the same molecule?
**A.** 0.298

**Q.** What about the relative viability (EMC-BAC-2; first compound 8 µM) of the same molecule?
**A.** 0.333

**Q.** And the relative viability (NCI-H520; first compound 0.253 µM)?
**A.** 0.429

**Q.** What about the relative viability (NCI-H520; first compound 0.8 µM) of the same molecule?
**A.** 0.461

**Q.** What about the relative viability (NCI-H520; first compound 2.53 µM) of the same molecule?
**A.** 0.468

**Q.** And the relative viability (NCI-H520; first compound 8 µM)?
**A.** 0.374

**Q.** And the relative viability (EKVX; first compound 0.253 µM)?
**A.** 0.396

**Q.** And the relative viability (EKVX; first compound 0.8 µM)?
**A.** 0.41

**Q.** What about the relative viability (EKVX; first compound 2.53 µM) of the same molecule?
**A.** 0.415

**Q.** What about the relative viability (EKVX; first compound 8 µM) of the same molecule?
**A.** 0.372

**Q.** And the relative viability (NCI-H2405; first compound 0.253 µM)?
**A.** 0.738

**Q.** What about the relative viability (NCI-H2405; first compound 0.8 µM) of the same molecule?
**A.** 0.766

**Q.** What about the relative viability (NCI-H2405; first compound 2.53 µM) of the same molecule?
**A.** 0.778

**Q.** And the relative viability (NCI-H2405; first compound 8 µM)?
**A.** 0.78

**Q.** And the relative viability (NCI-H661; first compound 0.253 µM)?
**A.** 0.379

**Q.** And the relative viability (NCI-H661; first compound 0.8 µM)?
**A.** 0.368

**Q.** What about the relative viability (NCI-H661; first compound 2.53 µM) of the same molecule?
**A.** 0.335

**Q.** And the relative viability (NCI-H661; first compound 8 µM)?
**A.** 0.374

**Q.** What about the relative viability (HCC-15; first compound 0.253 µM) of the same molecule?
**A.** 0.352

**Q.** What about the relative viability (HCC-15; first compound 0.8 µM) of the same molecule?
**A.** 0.431

**Q.** And the relative viability (HCC-15; first compound 2.53 µM)?
**A.** 0.446

**Q.** And the relative viability (HCC-15; first compound 8 µM)?
**A.** 0.496

**Q.** And the relative viability (LC-2-ad; first compound 0.253 µM)?
**A.** 0.538

**Q.** And the relative viability (LC-2-ad; first compound 2.53 µM)?
**A.** 0.469

**Q.** And the relative viability (LC-2-ad; first compound 8 µM)?
**A.** 0.469

**Q.** What about the relative viability (HARA; first compound 0.253 µM) of the same molecule?
**A.** 0.0944

**Q.** And the relative viability (HARA; first compound 2.53 µM)?
**A.** 0.133

**Q.** What about the relative viability (HARA; first compound 8 µM) of the same molecule?
**A.** 0.103

**Q.** What about the relative viability (LCLC-97TM1; first compound 0.253 µM) of the same molecule?
**A.** 0.227

**Q.** What about the relative viability (LCLC-97TM1; first compound 0.8 µM) of the same molecule?
**A.** 0.277

**Q.** What about the relative viability (LCLC-97TM1; first compound 2.53 µM) of the same molecule?
**A.** 0.256

**Q.** And the relative viability (LCLC-97TM1; first compound 8 µM)?
**A.** 0.232
